In patent publication US4826845A, “3(2H)-pyridazinones and pharmaceutical compositions thereof” (Richter Gedeon Vegyeszeti Gyar T.R., priority 1985, dated 1989):
Structures can show the parent of a compound that is named as a salt.

Assays:
anaesthetized cats = assay: Measurement of the hypotensive effect on anaesthetized cats (i.v. screening); format: in vivo, cat
Description: A tube was introduced into the trachea of cats anaesthetized by the intraperitoneal (i.p.) administration of 35 mg/kg of sodium pentobarbital whereby the spontaneous breathing was supported. On the one side of the animals, the femoral artery and vein were exposed and a polyethylene cannula was introduced in both vessels each. The substances to be tested were administered through the venous cannula. The mean arterial blood pressure was measured by connecting the arterial cannula with a Statham P 23 Db pressure transducer and electromanometer.
As a first screening dose, 5 mg/kg of the compounds to be tested were intravenously (i.v.) administered.

[1] = target: T1, potential-mediated calcium channel (Rattus norvegicus, UniProt P22002); assay: Calcium-antagonism on isolated portal vein: potential-mediated calcium channel; format: cell-based; settings: rat portal vein, 80 millimoles KCl, 37° C.; read-out: Inhibition of the calcium channel, potential-mediated, IC50
T1 construct: from tissue; host or cells: isolated rat portal vein
Description: The calcium-antagonism of the compounds of the invention was studied on an isolated vessel preparation based on the work of M. Fiol de Cuneo et al. [Arch. Int. Pharmacodyn.
Male CFY rats with a body-weight of 150 to 200 g were bled by decapitation and the portal vein was immediately prepared starting from the hepatic portal. The vessel was longitudinally incised, bound to a transducer registering the contractions and incubated under a tension of 1 g at 37° C. in a calcium-free Krebs-Ringer bicarbonate solution aerated with carbogen. After an equilibration lasting for 30 minutes, the functioning of the receptor-mediated and the K^+ -depolarisation-mediated calcium channels, respectively, were investigated.
For investigating the potential-mediated calcium channel, the vein placed in the calcium-free Krebs-Ringer solution was washed by adding and then by removing 80 millimoles of potassium chloride while maintaining the isotania until no contraction appeared on repeatedly adding potassium chloride.
All measurements were carried out at 37° C. while bubbling through carbogen.

[2] = tested on: postsynaptic alpha1 receptor; assay: Kinetic analysis on rabbit aorta strip preparation: postsynaptic alpha1 receptor antagonism; format: cell-based
Description: Male rabbits with a body-weight of 3 to 3.5 kg were used for these experiments. […] A dose response curve was plotted by using norepinephrine and a dose selected from the steepest interval of the curve was added repeatedly to the bath until obtaining equal responses. Then, the compound to be tested was added and after 5 minutes, the dose series of norepinephrine was repeated. The extent of the inhibition was expressed as percentage.

T1 sequence (P22002 whole entry): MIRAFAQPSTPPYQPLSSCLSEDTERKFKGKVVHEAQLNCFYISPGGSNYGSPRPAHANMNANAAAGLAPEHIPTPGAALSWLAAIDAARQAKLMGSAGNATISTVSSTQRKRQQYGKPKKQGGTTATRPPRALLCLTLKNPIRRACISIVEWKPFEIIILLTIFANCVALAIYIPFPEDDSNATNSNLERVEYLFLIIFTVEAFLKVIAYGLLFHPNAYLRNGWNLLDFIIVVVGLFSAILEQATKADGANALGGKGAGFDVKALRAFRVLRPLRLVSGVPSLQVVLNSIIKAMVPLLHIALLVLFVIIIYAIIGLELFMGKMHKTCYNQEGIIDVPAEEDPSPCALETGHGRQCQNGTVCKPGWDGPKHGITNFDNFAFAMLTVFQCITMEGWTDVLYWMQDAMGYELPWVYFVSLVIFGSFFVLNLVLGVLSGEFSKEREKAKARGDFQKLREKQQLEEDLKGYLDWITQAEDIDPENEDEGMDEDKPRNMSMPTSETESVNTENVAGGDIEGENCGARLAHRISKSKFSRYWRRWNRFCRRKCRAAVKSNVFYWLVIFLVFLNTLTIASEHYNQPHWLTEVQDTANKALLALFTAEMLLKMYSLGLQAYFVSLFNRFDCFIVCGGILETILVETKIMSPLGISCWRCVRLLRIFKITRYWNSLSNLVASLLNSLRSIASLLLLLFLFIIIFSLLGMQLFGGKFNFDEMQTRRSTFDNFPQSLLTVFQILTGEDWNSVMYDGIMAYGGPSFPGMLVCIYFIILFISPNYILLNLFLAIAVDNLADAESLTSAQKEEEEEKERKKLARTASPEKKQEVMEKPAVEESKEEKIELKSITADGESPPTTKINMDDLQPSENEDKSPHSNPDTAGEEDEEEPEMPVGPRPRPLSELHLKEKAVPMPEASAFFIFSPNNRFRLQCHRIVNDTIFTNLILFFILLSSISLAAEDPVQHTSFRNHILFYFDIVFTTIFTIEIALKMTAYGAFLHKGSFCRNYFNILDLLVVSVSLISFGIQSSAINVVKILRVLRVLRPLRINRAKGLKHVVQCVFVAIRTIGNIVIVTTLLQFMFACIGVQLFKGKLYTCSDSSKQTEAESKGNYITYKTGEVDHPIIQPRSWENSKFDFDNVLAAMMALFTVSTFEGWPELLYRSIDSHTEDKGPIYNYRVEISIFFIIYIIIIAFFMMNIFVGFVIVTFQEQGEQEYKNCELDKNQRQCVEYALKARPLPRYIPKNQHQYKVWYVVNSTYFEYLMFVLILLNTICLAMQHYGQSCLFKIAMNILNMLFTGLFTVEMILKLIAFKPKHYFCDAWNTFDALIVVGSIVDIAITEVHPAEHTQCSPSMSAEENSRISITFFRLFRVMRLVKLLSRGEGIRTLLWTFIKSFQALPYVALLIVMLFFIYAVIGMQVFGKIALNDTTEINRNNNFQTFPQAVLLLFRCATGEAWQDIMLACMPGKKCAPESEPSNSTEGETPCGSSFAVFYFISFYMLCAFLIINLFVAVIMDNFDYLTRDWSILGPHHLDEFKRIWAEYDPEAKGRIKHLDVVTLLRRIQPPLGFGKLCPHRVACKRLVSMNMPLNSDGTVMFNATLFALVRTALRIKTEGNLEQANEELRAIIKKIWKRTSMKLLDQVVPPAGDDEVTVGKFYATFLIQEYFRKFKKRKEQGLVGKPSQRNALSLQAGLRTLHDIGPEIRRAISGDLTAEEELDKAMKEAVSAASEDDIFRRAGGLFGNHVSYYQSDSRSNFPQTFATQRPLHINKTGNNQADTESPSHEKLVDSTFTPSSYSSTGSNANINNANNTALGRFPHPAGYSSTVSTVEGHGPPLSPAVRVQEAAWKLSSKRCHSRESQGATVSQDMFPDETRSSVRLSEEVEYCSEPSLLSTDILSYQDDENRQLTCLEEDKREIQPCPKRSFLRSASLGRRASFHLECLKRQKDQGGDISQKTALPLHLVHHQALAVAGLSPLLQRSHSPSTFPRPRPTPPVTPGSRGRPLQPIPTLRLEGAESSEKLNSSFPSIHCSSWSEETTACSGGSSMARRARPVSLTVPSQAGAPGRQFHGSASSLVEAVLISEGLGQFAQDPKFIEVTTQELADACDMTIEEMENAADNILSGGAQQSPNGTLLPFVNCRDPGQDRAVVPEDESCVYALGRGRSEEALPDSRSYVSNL
T1 sequence (P54290 25-944 partner limits assumed): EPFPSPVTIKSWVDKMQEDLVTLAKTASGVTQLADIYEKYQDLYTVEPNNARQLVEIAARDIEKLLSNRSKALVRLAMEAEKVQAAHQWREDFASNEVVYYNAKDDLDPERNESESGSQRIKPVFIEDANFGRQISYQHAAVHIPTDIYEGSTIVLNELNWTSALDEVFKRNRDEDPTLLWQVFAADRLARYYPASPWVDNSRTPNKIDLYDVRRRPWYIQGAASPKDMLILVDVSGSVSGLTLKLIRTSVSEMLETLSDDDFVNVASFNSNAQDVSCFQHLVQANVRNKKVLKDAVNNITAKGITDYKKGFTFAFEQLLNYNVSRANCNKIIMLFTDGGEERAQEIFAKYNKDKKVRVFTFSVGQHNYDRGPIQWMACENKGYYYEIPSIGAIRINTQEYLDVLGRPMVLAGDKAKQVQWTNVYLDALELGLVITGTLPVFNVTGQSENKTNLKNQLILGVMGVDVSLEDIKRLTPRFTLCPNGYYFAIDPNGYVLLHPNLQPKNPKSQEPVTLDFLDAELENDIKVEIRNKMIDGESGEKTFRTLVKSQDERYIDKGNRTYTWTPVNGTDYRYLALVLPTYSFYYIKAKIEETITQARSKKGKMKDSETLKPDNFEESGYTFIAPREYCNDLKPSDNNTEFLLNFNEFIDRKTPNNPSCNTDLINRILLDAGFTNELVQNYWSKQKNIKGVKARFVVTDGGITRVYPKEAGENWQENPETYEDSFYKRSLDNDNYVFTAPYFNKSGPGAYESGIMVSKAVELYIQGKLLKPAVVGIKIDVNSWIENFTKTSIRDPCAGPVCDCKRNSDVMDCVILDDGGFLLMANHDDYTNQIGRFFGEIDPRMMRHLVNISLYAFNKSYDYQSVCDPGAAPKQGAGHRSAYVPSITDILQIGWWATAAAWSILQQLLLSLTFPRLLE
T1 sequence (P54290 945-1091 partner limits assumed): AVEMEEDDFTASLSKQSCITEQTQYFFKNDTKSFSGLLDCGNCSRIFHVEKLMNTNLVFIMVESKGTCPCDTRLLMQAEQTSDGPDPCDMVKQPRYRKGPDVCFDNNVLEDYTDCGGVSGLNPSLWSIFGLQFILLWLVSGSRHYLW

O=c1cccnn1CCCNCC1COc2ccccc2O1 (centres unmarked) [Example 3 (or 12), 2-[3-(benzo[1,4]dioxan-2-yl-methylamino)-1-propyl]-3(2H)-pyridazinone hydrochloride]
Mean arterial pressure decrease (anaesthetized cats; anaesthetized cats, 5.0 mg/kg i.v.): -95 Hgmm | blood pressure lowering action (in words) (anaesthetized cats; intravenous, summary of Table 1): particularly expressed | IC50 [1]: 500 nM | pA2 ([2]; negative logarithm of the molar antagonist concentration inhibiting the agonist to 50%, norepinephrine agonist, 5 min): 7.26 | Slope of the curve ([2]; rabbit aorta, norepinephrine): -1.26
